Test results published in ChEMBL document CHEMBL5537128, “Discovery of LWY713 as a potent and selective FLT3 PROTAC degrader with in vivo activity against acute myeloid leukemia” (Eur J Med Chem, 2024).
The source made the active and inactive calls. The calls are words filed in the database; no cut-off is given here.

Tests used:
[1] = Toxicity in NOD/SCID mouse xenografted with human MV4-11 cells assessed as weight loss at 6 mg/kg, ip administered once daily for 21 days; assay type: organism-based; conditions: in vivo, 504 h, time 21 day
[2] = test system: MV4-11; experiment: Induction of cell cycle arrest at G0/G1 phase in human MV4-11 cells assessed as sub-G0/G1 phase cells at 2 nM incubated for 24 hrs by PI staining based flow cytometric analysis relative to control; assay type: functional
[3] = biological target: T1, Protein cereblon/Receptor-type tyrosine-protein kinase FLT3 (Homo sapiens, UniProt P36888+Q96SW2); experiment: PROTAC activity at CRBN/FLT3 in human MV4-11 cells harboring FLT3 ITD mutation assessed as induction of FLT3 degradation at 1 nM measured upto 12 hrs in presence of cycloheximide by immunoblotting analysis; assay type: cell-based
Target sequence in this assay (P36888 27-993 limits assumed): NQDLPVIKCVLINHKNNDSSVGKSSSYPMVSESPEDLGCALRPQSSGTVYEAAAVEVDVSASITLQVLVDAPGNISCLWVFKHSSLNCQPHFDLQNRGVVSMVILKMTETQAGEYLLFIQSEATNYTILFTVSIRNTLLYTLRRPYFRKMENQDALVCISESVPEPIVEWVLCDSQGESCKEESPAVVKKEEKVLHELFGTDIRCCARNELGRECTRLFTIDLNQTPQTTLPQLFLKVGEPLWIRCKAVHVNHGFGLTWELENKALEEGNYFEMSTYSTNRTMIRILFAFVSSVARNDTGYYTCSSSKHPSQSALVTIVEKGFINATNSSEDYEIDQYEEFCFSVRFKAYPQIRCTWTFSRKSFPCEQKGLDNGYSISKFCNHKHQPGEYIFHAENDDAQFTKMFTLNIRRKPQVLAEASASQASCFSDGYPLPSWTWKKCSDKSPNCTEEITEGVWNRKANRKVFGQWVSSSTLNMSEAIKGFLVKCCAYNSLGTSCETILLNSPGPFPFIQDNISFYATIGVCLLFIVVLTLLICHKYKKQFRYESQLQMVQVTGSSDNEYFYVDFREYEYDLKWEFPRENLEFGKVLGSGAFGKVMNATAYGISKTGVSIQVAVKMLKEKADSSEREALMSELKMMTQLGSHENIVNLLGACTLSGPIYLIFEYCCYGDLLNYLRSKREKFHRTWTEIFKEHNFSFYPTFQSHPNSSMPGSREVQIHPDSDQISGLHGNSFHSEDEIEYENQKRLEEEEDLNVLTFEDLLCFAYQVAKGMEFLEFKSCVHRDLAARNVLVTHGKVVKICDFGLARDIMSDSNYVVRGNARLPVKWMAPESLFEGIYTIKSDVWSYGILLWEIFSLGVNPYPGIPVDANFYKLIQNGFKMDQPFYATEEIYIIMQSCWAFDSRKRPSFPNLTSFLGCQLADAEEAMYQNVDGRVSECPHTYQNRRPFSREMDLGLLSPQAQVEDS
Target sequence in this assay (Q96SW2 whole entry partner): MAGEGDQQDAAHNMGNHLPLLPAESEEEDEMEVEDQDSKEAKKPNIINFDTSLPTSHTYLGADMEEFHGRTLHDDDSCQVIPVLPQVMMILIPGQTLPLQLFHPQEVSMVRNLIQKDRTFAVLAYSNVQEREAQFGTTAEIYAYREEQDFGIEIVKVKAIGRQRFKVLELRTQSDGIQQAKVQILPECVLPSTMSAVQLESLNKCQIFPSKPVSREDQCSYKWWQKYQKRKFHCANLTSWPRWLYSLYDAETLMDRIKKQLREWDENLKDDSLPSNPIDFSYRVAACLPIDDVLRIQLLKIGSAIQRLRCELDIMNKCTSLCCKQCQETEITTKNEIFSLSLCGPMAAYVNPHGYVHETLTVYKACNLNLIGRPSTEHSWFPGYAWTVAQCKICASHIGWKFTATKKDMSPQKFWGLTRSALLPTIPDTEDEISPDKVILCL

[4] = test system: MV4-11; experiment: Induction of cell cycle arrest at G0/G1 phase in human MV4-11 cells assessed as sub-G0/G1 phase cells at 0.4 nM incubated for 24 hrs by PI staining based flow cytometric analysis relative to control; assay type: functional
[5] = test system: MV4-11; experiment: Induction of apoptosis in human MV4-11 cells assessed as early apoptotic cells at 2 nM incubated for 48 hrs by Annexin V/7-AAD staining based flow cytometric analysis relative to control; assay type: functional
[6] = biological target: T1, Protein cereblon/Receptor-type tyrosine-protein kinase FLT3; experiment: PROTAC activity at CRBN/FLT3 in human MV4-11 cells harboring FLT3-ITD mutation assessed as reduction in FLT3 phosphorylation incubated for 24 hrs by immunoblotting analysis; assay type: cell-based; conditions: dose 0.08-50 nM
Target sequence in this assay (P36888 27-993 limits assumed): as the sequence (P36888 27-993 limits assumed) above
Target sequence in this assay (Q96SW2 whole entry partner): as the sequence (Q96SW2 whole entry partner) above

[7] = test system: MV4-11; experiment: Potency index, ratio of gilteritinib IC50 to test compound IC50 for antiproliferative activity against human MV4-11 cells assessed as inhibition of cell proliferation incubated for 72 hrs by CCK8 assay; assay type: functional
[8] = biological target: T1, Protein cereblon/Receptor-type tyrosine-protein kinase FLT3; experiment: PROTAC activity at CRBN/FLT3 in human MV4-11 cells harboring FLT3 ITD mutation assessed as induction of FLT3 degradation at 1 nM incubated for 6 hrs in presence of bafilomycin by immunoblotting analysis; assay type: cell-based
Target sequence in this assay (P36888 27-993 limits assumed): as the sequence (P36888 27-993 limits assumed) above
Target sequence in this assay (Q96SW2 whole entry partner): as the sequence (Q96SW2 whole entry partner) above

[9] = test system: MV4-11; experiment: Induction of cell cycle arrest at G0/G1 phase in human MV4-11 cells assessed as S phase cells at 0.4 nM incubated for 24 hrs by PI staining based flow cytometric analysis relative to control; assay type: functional
[10] = test system: MV4-11; experiment: Inhibition of ERK phosphorylation in human MV4-11 cells incubated for 24 hrs by immunoblotting analysis; assay type: cell-based; conditions: dose 0.08-50 nM
[11] = test system: MV4-11; experiment: Induction of apoptosis in human MV4-11 cells assessed as early apoptotic cells at 10 nM incubated for 48 hrs by Annexin V/7-AAD staining based flow cytometric analysis relative to control; assay type: functional
[12] = biological target: T1, Protein cereblon/Receptor-type tyrosine-protein kinase FLT3; experiment: PROTAC activity at CRBN/FLT3 in human MV4-11 cells harboring FLT3 ITD mutation assessed as induction of FLT3 degradation at 1 nM incubated for 6 hrs in presence of lenalidomide by Immunoblotting analysis; assay type: cell-based
Target sequence in this assay (P36888 27-993 limits assumed): as the sequence (P36888 27-993 limits assumed) above
Target sequence in this assay (Q96SW2 whole entry partner): as the sequence (Q96SW2 whole entry partner) above

[13] = biological target: T1, Protein cereblon/Receptor-type tyrosine-protein kinase FLT3; experiment: PROTAC activity at CRBN/FLT3 in human MV4-11 cells harboring FLT3-ITD mutation assessed as induction of FLT3 degradation by measuring maximal efficacy incubated for 24 hrs by immunoblotting analysis relative to control; assay type: cell-based
Target sequence in this assay (P36888 27-993 limits assumed): as the sequence (P36888 27-993 limits assumed) above
Target sequence in this assay (Q96SW2 whole entry partner): as the sequence (Q96SW2 whole entry partner) above

[14] = test system: MV4-11; experiment: Induction of apoptosis in human MV4-11 cells assessed as necrotic cells at 10 nM incubated for 48 hrs by Annexin V/7-AAD staining based flow cytometric analysis relative to control; assay type: functional
[15] = test system: MV4-11; experiment: Induction of cell cycle arrest at G0/G1 phase in human MV4-11 cells assessed as S phase cells at 2 nM incubated for 24 hrs by PI staining based flow cytometric analysis relative to control; assay type: functional
[16] = test system: MV4-11; experiment: Antitumor activity against human MV4-11 cells xenografted in NOD/SCID mouse assessed as reduction in tumor volume at 6 mg/kg, ip administered once a day for 21 days; assay type: functional, organism-based; conditions: time 21.0 day
[17] = test system: MV4-11; experiment: Induction of apoptosis in human MV4-11 cells incubated for 48 hrs by Annexin V/7-AAD staining based flow cytometric analysis; assay type: functional, cell-based; conditions: dose 0.016-10 nM
[18] = biological target: ALK tyrosine kinase receptor (Homo sapiens) (UniProt Q9UM73); experiment: Induction of ALK degradation in human Raji cells at 1 to 10 nM measured upto 24 hrs by immunoblotting analysis; assay type: cell-based; conditions: dose 1-10 nM
[19] = test system: MV4-11; experiment: Inhibition of PI3K/AKT signaling pathway in human MV4-11 cells assessed as reduction in AKT phosphorylation incubated for 24 hrs by immunoblotting analysis; assay type: cell-based; conditions: dose 0.08-50 nM
[20] = test system: MV4-11; experiment: Induction of cell cycle arrest at G0/G1 phase in human MV4-11 cells assessed as G0/G1 phase cells at 2 nM incubated for 24 hrs by PI staining based flow cytometric analysis relative to control; assay type: functional
[21] = biological target: T1, Protein cereblon/Receptor-type tyrosine-protein kinase FLT3; experiment: PROTAC activity at CRBN/FLT3 in human MV4-11 cells harboring FLT3 ITD mutation assessed as induction of FLT3 degradation at 1 nM incubated for 6 hrs in presence of MG132 by immunoblotting analysis; assay type: cell-based
Target sequence in this assay (P36888 27-993 limits assumed): as the sequence (P36888 27-993 limits assumed) above
Target sequence in this assay (Q96SW2 whole entry partner): as the sequence (Q96SW2 whole entry partner) above

[22] = test system: MV4-11; experiment: Induction of cell cycle arrest at G0/G1 phase in human MV4-11 cells assessed as G2/M phase cells at 0.4 nM incubated for 24 hrs by PI staining based flow cytometric analysis relative to control; assay type: functional
[23] = test system: MV4-11; experiment: Induction of apoptosis in human MV4-11 cells assessed as increase in cleaved caspase 3 level at 2 to 10 nM incubated for 48 hrs by immunoblotting analysis; assay type: functional, cell-based; conditions: dose 2-10 nM
[24] = test system: MV4-11; experiment: Induction of apoptosis in human MV4-11 cells assessed as increase in cleaved PARP level at 2 to 10 nM incubated for 48 hrs by immunoblotting analysis; assay type: functional, cell-based; conditions: dose 2-10 nM
[25] = biological target: Leukocyte tyrosine kinase receptor (Homo sapiens) (UniProt P29376); experiment: Induction of LTK degradation in human Raji cells at 1 to 10 nM measured upto 24 hrs by immunoblotting analysis; assay type: cell-based; conditions: dose 1-10 nM
[26] = test system: MV4-11; experiment: Induction of cell cycle arrest at G0/G1 phase in human MV4-11 cells assessed as G2/M phase cells at 2 nM incubated for 24 hrs by PI staining based flow cytometric analysis relative to control; assay type: functional
[27] = biological target: T1, Protein cereblon/Receptor-type tyrosine-protein kinase FLT3; experiment: PROTAC activity at CRBN/FLT3 in human MV4-11 cells harboring FLT3 ITD mutation assessed as induction of FLT3 degradation at 1 nM incubated for 6 hrs in presence of gilteritinib by immunoblotting analysis; assay type: cell-based
[28] = biological target: T1, Protein cereblon/Receptor-type tyrosine-protein kinase FLT3; experiment: PROTAC activity at CRBN/FLT3 in human MV4-11 cells harboring FLT3-ITD mutation assessed as induction of FLT3 degradation incubated for 24 hrs by immunoblotting analysis; assay type: cell-based
[29] = biological target: Tyrosine-protein kinase receptor UFO (Homo sapiens) (UniProt P30530); experiment: Induction of AXL degradation in human MDA-MB-231 cells at 1 to 10 nM measured upto 20 hrs by immunoblotting analysis; assay type: cell-based; conditions: dose 1-10 nM
[30] = biological target: T1, Protein cereblon/Receptor-type tyrosine-protein kinase FLT3; experiment: PROTAC activity at CRBN/FLT3 in human MV4-11 cells harboring FLT3 ITD mutation assessed as induction of FLT3 degradation at 1 nM incubated for 6 hrs in presence of MLN4924 by immunoblotting analysis; assay type: cell-based
[31] = test system: MV4-11; experiment: Induction of cell cycle arrest at G0/G1 phase in human MV4-11 cells assessed as G0/G1 phase cells at 0.4 nM incubated for 24 hrs by PI staining based flow cytometric analysis relative to control; assay type: functional
[32] = test system: MV4-11; experiment: Inhibition of JAK/STAT5 signaling pathway in human MV4-11 cells assessed as reduction in STAT5 phosphorylation incubated for 24 hrs by immunoblotting analysis; assay type: cell-based; conditions: dose 0.08-50 nM
[33] = test system: MV4-11; experiment: Induction of apoptosis in human MV4-11 cells assessed as late apoptotic cells at 2 nM incubated for 48 hrs by Annexin V/7-AAD staining based flow cytometric analysis relative to control; assay type: functional
[34] = test system: MV4-11; experiment: Induction of apoptosis in human MV4-11 cells assessed as late apoptotic cells at 10 nM incubated for 48 hrs by Annexin V/7-AAD staining based flow cytometric analysis relative to control; assay type: functional
[35] = test system: MV4-11; experiment: Antiproliferative activity against human MV4-11 cells assessed as inhibition of cell proliferation incubated for 72 hrs by CCK8 assay; assay type: functional, cell-based; conditions: MV4-11, 72 h
[36] = biological target: T1, Protein cereblon/Receptor-type tyrosine-protein kinase FLT3; experiment: PROTAC activity at CRBN/FLT3 in human MV4-11 cells harboring FLT3-ITD mutation assessed as induction of FLT3 degradation at 1 nM incubated for 2 to 20 hrs by Immunoblotting analysis; assay type: cell-based; conditions: time 2-20 hrs

Chain of ALK tyrosine kinase receptor (Homo sapiens) (Q9UM73 19-1620 limits assumed): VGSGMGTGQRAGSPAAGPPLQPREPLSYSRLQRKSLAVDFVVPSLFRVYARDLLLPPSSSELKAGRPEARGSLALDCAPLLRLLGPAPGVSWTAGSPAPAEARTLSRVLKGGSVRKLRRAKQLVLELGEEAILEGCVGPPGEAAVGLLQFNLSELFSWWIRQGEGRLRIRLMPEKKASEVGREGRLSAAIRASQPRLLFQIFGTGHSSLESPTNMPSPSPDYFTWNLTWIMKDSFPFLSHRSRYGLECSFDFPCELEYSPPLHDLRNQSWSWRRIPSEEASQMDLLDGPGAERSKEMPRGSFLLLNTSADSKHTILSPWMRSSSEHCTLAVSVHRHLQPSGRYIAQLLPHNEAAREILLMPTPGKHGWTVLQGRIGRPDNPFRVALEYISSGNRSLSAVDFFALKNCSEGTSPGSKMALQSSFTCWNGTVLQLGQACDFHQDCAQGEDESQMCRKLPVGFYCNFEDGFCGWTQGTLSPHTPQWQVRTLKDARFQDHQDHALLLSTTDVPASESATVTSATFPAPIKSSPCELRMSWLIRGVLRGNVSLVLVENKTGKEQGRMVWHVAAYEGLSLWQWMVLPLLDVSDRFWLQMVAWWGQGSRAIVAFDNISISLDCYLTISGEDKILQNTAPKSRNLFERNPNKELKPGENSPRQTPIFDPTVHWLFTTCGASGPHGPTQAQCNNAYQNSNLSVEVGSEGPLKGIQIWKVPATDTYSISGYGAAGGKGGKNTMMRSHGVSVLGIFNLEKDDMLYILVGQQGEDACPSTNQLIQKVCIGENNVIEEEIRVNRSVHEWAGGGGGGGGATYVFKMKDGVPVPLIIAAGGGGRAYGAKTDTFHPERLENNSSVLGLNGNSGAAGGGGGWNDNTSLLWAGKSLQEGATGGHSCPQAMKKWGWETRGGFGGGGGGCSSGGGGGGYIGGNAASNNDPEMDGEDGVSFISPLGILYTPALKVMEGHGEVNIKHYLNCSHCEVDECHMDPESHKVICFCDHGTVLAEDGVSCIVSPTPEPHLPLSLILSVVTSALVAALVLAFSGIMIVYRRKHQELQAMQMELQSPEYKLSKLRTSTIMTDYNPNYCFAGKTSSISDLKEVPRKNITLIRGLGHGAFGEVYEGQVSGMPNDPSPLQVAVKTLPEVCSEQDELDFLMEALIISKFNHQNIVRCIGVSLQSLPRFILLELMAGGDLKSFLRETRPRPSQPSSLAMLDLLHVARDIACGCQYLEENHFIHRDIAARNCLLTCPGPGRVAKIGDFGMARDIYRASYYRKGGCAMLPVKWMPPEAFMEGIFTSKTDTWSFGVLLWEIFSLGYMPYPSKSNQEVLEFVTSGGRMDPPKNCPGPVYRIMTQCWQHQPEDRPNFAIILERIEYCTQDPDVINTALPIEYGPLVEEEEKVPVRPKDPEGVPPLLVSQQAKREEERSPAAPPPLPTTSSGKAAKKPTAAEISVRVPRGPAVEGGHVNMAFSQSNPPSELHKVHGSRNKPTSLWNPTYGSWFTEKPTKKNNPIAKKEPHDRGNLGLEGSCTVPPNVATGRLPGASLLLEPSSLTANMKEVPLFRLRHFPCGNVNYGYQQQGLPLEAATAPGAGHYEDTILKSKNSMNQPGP
Chain of Leukocyte tyrosine kinase receptor (Homo sapiens) (P29376 whole entry): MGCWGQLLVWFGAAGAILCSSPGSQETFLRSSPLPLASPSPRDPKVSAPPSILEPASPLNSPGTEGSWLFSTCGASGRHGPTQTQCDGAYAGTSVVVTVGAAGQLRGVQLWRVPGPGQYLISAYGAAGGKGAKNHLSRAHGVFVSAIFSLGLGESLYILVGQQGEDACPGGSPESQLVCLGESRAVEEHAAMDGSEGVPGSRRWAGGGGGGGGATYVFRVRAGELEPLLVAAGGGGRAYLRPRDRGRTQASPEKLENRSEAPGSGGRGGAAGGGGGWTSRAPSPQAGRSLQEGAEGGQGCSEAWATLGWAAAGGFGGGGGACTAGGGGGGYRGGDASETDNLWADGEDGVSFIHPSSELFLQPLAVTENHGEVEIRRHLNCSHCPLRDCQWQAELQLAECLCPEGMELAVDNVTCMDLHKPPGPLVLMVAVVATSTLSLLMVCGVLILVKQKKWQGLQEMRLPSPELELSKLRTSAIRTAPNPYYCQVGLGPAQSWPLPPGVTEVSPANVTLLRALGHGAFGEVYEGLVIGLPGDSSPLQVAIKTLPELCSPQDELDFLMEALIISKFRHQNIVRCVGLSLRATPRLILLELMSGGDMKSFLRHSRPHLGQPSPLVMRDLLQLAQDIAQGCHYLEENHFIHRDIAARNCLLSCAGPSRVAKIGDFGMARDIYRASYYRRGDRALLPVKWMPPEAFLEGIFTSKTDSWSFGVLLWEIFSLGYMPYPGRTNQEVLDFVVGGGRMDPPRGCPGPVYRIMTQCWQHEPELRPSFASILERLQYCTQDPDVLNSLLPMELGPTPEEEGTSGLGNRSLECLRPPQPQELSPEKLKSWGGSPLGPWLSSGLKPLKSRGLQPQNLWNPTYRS

Q: Which Activity [1] does the source give for CCc1nc(C(N)=O)c(Nc2ccc(N3CCC(N4CCN(C(=O)COc5cccc6c5CN(C5CCC(=O)NC5=O)C6=O)CC4)CC3)c(OC)c2)nc1NC1CCOCC1 (configuration not stated) here?
A: The Activity was “Non-Toxic”.

Q: What about the Activity [2] of the same compound?
A: The Activity was 6.8%.

Q: And the Activity [3]?
A: Its Activity is “Active”.

Q: What about the Activity [4] of the same compound?
A: Its Activity is 2.4%.

Q: And the Activity [5]?
A: The Activity was 2.8%.

Q: What about the Activity [6] of the same compound?
A: The Activity was “Active”.

Q: What about the “Ratio IC50” value [7] of the same compound?
A: The value was 4.6.

Q: What about the Activity [8] of the same compound?
A: The Activity was “Active”.

Q: What about the Activity [9] of the same compound?
A: The Activity was 5.6%.

Q: What about the inhibition [10] of the same compound?
A: The inhibition was “Dose-Dependent Effect”.

Q: What about the Activity [11] of the same compound?
A: Its Activity is 3.4%.

Q: What about the Activity [12] of the same compound?
A: The Activity was “inactive”.

Q: What about the Emax [13] of the same compound?
A: Its Emax is 94.8%.

Q: What about the Activity [14] of the same compound?
A: Its Activity is 15.9%.

Q: What about the Activity [15] of the same compound?
A: The Activity was 2.9%.

Q: What about the Activity [16] of the same compound?
A: Its Activity is “Active”.

Q: What about the Activity [17] of the same compound?
A: Its Activity is “Dose-Dependent Effect”.

Q: What about the Activity [18] of the same compound?
A: Its Activity is “inactive”.

Q: And the inhibition [19]?
A: Its inhibition is “Dose-Dependent Effect”.

Q: And the Activity [20]?
A: The Activity was 82.1%.

Q: What about the Activity [21] of the same compound?
A: Its Activity is “inactive”.

Q: What about the Activity [22] of the same compound?
A: Its Activity is 12.1%.

Q: And the Activity [23]?
A: The Activity was “Active”.

Q: And the Activity [24]?
A: Its Activity is “Active”.

Q: And the Activity [25]?
A: The Activity was “inactive”.

Q: And the Activity [26]?
A: The Activity was 8.1%.

Q: And the Activity [27]?
A: Its Activity is “inactive”.

Q: And the Activity [28]?
A: Its Activity is “Dose-Dependent Effect”.

Q: And the DC50 [28]?
A: Its DC50 is 0.64 nM.

Q: And the Activity [29]?
A: The Activity was “inactive”.

Q: And the Activity [30]?
A: The Activity was “inactive”.

Q: And the Activity [31]?
A: Its Activity is 79.8%.

Q: And the inhibition [32]?
A: Its inhibition is “Dose-Dependent Effect”.

Q: What about the Activity [33] of the same compound?
A: The Activity was 24.8%.

Q: What about the Activity [34] of the same compound?
A: The Activity was 33.1%.

Q: And the IC50 [35]?
A: The IC50 was 1.5 nM.

Q: What about the Activity [36] of the same compound?
A: Its Activity is “Active”.
